Experimental data published in patent publication US20250387443A1, “ENHANCING ONCOLYTIC V[…] A COMBINATION OF NUCLEAR EXPORT INHIBITOR AND MYXOMA VIRUS […] DEATH PATHWAYS” (Arizona Board of Regents on behalf of Arizona State …, priority 2024, published 2025).

Legend:
PANC-1 cells [1] = type: cell-based, human
[2] = tested on: human xenograft tumor models; test: MYXV replication in human xenograft tumor models; type: in vivo; details: human xenograft tumor models in NSG mice
2D and 3D cell cultures = test: MYXV replication in 2D and 3D cell cultures; type: cell-based
PANC-1 cells [3] = type: cell-based, human; remark: listed apart in the source
MDA-MB435 cells = type: cell-based, human
Colo205 cells = type: cell-based, human

O=C(/C=C\n1cnc(-c2cc(C(F)(F)F)cc(C(F)(F)F)c2)n1)NNc1cnccn1 [selinexor]
significantly enhanced: MYXV gene expression and replication (PANC-1 cells [1]) | MYXV replication [2] | MYXV replication (2D and 3D cell cultures) | replication of vMyx-M11L-KO (progeny virus) (PANC-1 cells [3]) | replication of vMyx-hLIGHT (progeny virus) (PANC-1 cells [3]) | MYXV gene expression and replication (MDA-MB435 cells) | MYXV gene expression and replication (Colo205 cells)
